Assay results as given in patent US8058306B2, “Phenyl pyrrole aminoguanidine derivatives” (Action Pharma A/S, priority 2006, dated 2011).
Values joined by “and” are separate entries in the source; they are usually repeats but may differ in a detail not shown here. Identical values can stand only once. “Also recorded” adds a separate entry of the source. Like-named read-outs stand apart in the source and are kept apart here.

Assay: Plasma kinetics in rat following intravenous and oral administration;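 as to AUC0-∞: parameter is AUC from zero to infinity in ng·h/mL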
Type: in vivo, Sprague Dawley rats
Experimental: This study determined the intravenous pharmacokinetics and oral bioavailability of compound 1 of the invention (see FIG. 1A, structure no. 1), compound 2 of the invention (see FIG. 1D, structure no. 19) and compound 3 of the invention (see FIG. 1I, structure no. 53) following administration to Sprague Dawley rats at a dose level of 10 mg/kg.
Six groups of 3 male rats received either a single intravenous or single oral administration of compound 1, 2 or 3 of the invention at a dose level of 10 mg/kg. Blood samples were obtained at various times after dosing. Plasma samples were analysed for unchanged test item using a suitable LC-MS/MS method. Pharmacokinetic parameters were estimated from individual plasma concentrations.
Eighteen male rats each received either a single intravenous or a single oral administration of either compound 1, 2 or 3 at a dose level of 10 mg/kg. The formulation was orally administered to each animal by gastric gavage and intravenously administered to each animal via a tail vein. The dose was administered at a dose volume of 5 mL/kg. The formulations were administered to each animal according to the details in the following table:
Blood samples (ca 0.3 mL) were removed from the femoral vein of each animal into tubes containing lithium heparin as anticoagulant.
Blood samples were collected from 3 rats at the following times after dose administration: • 3, 6, 15, 45 min and 1.5, 2.5, 4, 6, 8, 24 h post dose. Oral Administration
Blood samples were collected from 3 rats at the following times after dose administration: • 5, 15, 45 min and 1.5, 2.5, 4, 6, 8, 24 h post dose. Processing of Blood Samples
Pharmacokinetic parameters of compound 1, 2 and 3 were derived by non-compartmental analysis using WinNonLin Pro version 5.0.1 (Pharsight 2005). The following parameters were derived, where appropriate, from the individual plasma concentration versus time profiles:
• F % The absolute oral bioavailability calculated as [AUC0-t (oral)*Dose(iv)/AUC0-t (iv)*Dose (oral)]*100 based on mean values derived after oral and intravenous administration Consideration was given to the estimation of λz and corresponding t1/2 values. Three or more points are required within the terminal phase for λz and t1/2 to be estimated. The following additional variables were tabulated to aid identification of potentially unreliable estimates of t1/2 and AUC:
Pharmacokinetic parameters were reported as geometric mean except Tmax which was reported as the median. Geometric coefficient of variation was calculated as: […]
Actual sampling times were used for all calculations of pharmacokinetic parameters. Plasma concentrations that were below the limit of quantification were taken as zero for the pharmacokinetic analysis.

[1] = intravenous 10 mg/kg, male rats, individual animals, acetate, 10 mg/kg
[2] = male, Sprague Dawley, rat, plasma, iv, 10 mg/kg, single intravenous 10 mg/kg, male rats, individual animals, read-out: Sample Concentration in plasma
[3] = male, Sprague Dawley, rat, plasma, iv, 10 mg/kg, single intravenous 10 mg/kg, male rats, mean of 3, read-out: Mean Concentration in plasma

Q: What does the source list for `N=C(N)NN=CC=Cc1cccn1-c1ccccc1[N+](=O)[O-]` [Compound 2, [1-(2-nitrophenyl)-1H-pyrrol-2-yl-allylideneamino]guanidinium acetate]?
A: bioavailability (Sprague Dawley, rat, plasma, 10 mg/kg oral vs intravenous, male rats, from mean AUC0-t, read-out: Mean absolute oral bioavailability): 3.2%; Between-animal variability in systemic exposure, coefficient of variation (CV) of AUC0-t (intravenous 10 mg/kg, male rats): less than 30%; AUC0-∞ [1]: 1868 ng·h/mL and 2468 ng·h/mL; AUC(0-t) [1]: 1701 ng·h/mL and 2445 ng·h/mL; C0 [1]: 4747 ng/mL and 2637 ng/mL; CL [1]: 90.45 mL/min/kg and 68.88 mL/min/kg; MRT [1]: 2.84 h and 4.84 h; Vss [1]: 15.408 L/kg and 20.008 L/kg; t1/2 [1]: 2.718 h and 3.8896 h; Systemic clearance (in words) (intravenous 10 mg/kg, rats): high; volume of distribution compared with total body water (in words) (intravenous 10 mg/kg, rats, total body water 668 mL/kg, acetate, 10 mg/kg): exceeded the total body water; also recorded: markedly greater than that of the total body water; systemic plasma clearance (CL) compared with hepatic blood flow (in words) (intravenous 10 mg/kg, hepatic blood flow 3312 mL/h/kg): greater than hepatic blood flow; AUC(0-inf) (male, Sprague Dawley, rat, plasma, iv, 10 mg/kg, intravenous 10 mg/kg, male rats, Arithmetic Mean): 2030 ng·h/mL; AUC(0-t) (male, Sprague Dawley, rat, plasma, iv, 10 mg/kg, intravenous 10 mg/kg, male rats, Arithmetic Mean, read-out: AUC0-t): 1880 ng·h/mL; C0 (male, Sprague Dawley, rat, plasma, iv, 10 mg/kg, intravenous 10 mg/kg, male rats, Arithmetic Mean, read-out: C0): 3470 ng/mL; clearance (male, Sprague Dawley, rat, plasma, iv, 10 mg/kg, intravenous 10 mg/kg, male rats, Arithmetic Mean, read-out: CL (converted)): 85.5 mL/min/kg; MRT (male, Sprague Dawley, rat, plasma, iv, 10 mg/kg, intravenous 10 mg/kg, male rats, Arithmetic Mean, read-out: MRT): 3.74 h; Vd (male, Sprague Dawley, rat, plasma, iv, 10 mg/kg, intravenous 10 mg/kg, male rats, Arithmetic Mean, read-out: Vss): 18.7 L/kg; half-life (male, Sprague Dawley, rat, plasma, iv, 10 mg/kg, intravenous 10 mg/kg, male rats, Arithmetic Mean, read-out: t1/2 (converted)): 3.29 h; AUC(0-inf) (male, Sprague Dawley, rat, plasma, iv, 10 mg/kg, intravenous 10 mg/kg, male rats, Geometric mean): 2010 ng·h/mL; AUC(0-t) (male, Sprague Dawley, rat, plasma, iv, 10 mg/kg, intravenous 10 mg/kg, male rats, Geometric mean, read-out: AUC0-t): 1840 ng·h/mL; C0 (male, Sprague Dawley, rat, plasma, iv, 10 mg/kg, intravenous 10 mg/kg, male rats, Geometric mean, read-out: C0): 3360 ng/mL; clearance (male, Sprague Dawley, rat, plasma, iv, 10 mg/kg, intravenous 10 mg/kg, male rats, Geometric mean, read-out: CL (systemic plasma clearance) (converted)): 84.6 mL/min/kg; MRT (male, Sprague Dawley, rat, plasma, iv, 10 mg/kg, intravenous 10 mg/kg, male rats, Geometric mean, read-out: MRT): 3.65 h; Vd (male, Sprague Dawley, rat, plasma, iv, 10 mg/kg, intravenous 10 mg/kg, male rats, Geometric mean, read-out: Vss (mean apparent volume of distribution)): 18.5 L/kg; half-life (male, Sprague Dawley, rat, plasma, iv, 10 mg/kg, intravenous 10 mg/kg, male rats, Geometric mean, read-out: t1/2 (mean apparent terminal half-life) (converted)): 3.25 h; AUC(0-inf) (male, Sprague Dawley, rat, plasma, iv, 10 mg/kg, intravenous 10 mg/kg, male rats, Median): 1870 ng·h/mL; AUC(0-t) (male, Sprague Dawley, rat, plasma, iv, 10 mg/kg, intravenous 10 mg/kg, male rats, Median, read-out: AUC0-t): 1700 ng·h/mL; C0 (male, Sprague Dawley, rat, plasma, iv, 10 mg/kg, intravenous 10 mg/kg, male rats, Median, read-out: C0): 3020 ng/mL; clearance (male, Sprague Dawley, rat, plasma, iv, 10 mg/kg, intravenous 10 mg/kg, male rats, Median, read-out: CL (converted)): 90.5 mL/min/kg; MRT (male, Sprague Dawley, rat, plasma, iv, 10 mg/kg, intravenous 10 mg/kg, male rats, Median, read-out: MRT): 3.53 h; Vd (male, Sprague Dawley, rat, plasma, iv, 10 mg/kg, intravenous 10 mg/kg, male rats, Median, read-out: Vss): 20 L/kg; half-life (male, Sprague Dawley, rat, plasma, iv, 10 mg/kg, intravenous 10 mg/kg, male rats, Median, read-out: t1/2 (converted)): 3.25 h; AUC(0-inf) (male, Sprague Dawley, rat, plasma, iv, 10 mg/kg, intravenous 10 mg/kg, male rats, individual animals): 1750 ng·h/mL; AUC(0-t) (male, Sprague Dawley, rat, plasma, iv, 10 mg/kg, intravenous 10 mg/kg, male rats, individual animals, read-out: AUC0-t): 1500 ng·h/mL; C0 (male, Sprague Dawley, rat, plasma, iv, 10 mg/kg, intravenous 10 mg/kg, male rats, individual animals, read-out: C0): 3020 ng/mL; clearance (male, Sprague Dawley, rat, plasma, iv, 10 mg/kg, intravenous 10 mg/kg, male rats, individual animals, read-out: CL (converted)): 97.1 mL/min/kg; MRT (male, Sprague Dawley, rat, plasma, iv, 10 mg/kg, intravenous 10 mg/kg, male rats, individual animals, read-out: MRT): 3.53 h; Vd (male, Sprague Dawley, rat, plasma, iv, 10 mg/kg, intravenous 10 mg/kg, male rats, individual animals, read-out: Vss): 20.6 L/kg; half-life (male, Sprague Dawley, rat, plasma, iv, 10 mg/kg, intravenous 10 mg/kg, male rats, individual animals, read-out: t1/2 (converted)): 3.25 h; concentration at 0.05 h (male, Sprague Dawley, rat, plasma, iv, 10 mg/kg, single intravenous 10 mg/kg, male rats, 0.05 h (3 min), mean of 3, read-out: Mean Concentration in plasma): 2350 ng/mL; concentration at 0.05 h (male, Sprague Dawley, rat, plasma, iv, 10 mg/kg, single intravenous 10 mg/kg, male rats, 0.05 h, individual animals, read-out: Sample Concentration in plasma): 1640 ng/mL; concentration at 0.1 h [2]: 1590 ng/mL; concentration at 0.1 h [3]: 1340 ng/mL; concentration at 0.25 h [2]: 847 ng/mL; concentration at 0.25 h [3]: 724 ng/mL; concentration at 0.75 h [2]: 264 ng/mL; concentration at 0.75 h [3]: 278 ng/mL; concentration at 1.5 h [2]: 250 ng/mL; concentration at 1.5 h [3]: 217 ng/mL; concentration at 2.5 h [2]: 195 ng/mL; concentration at 2.5 h [3]: 191 ng/mL; concentration at 4 h [2]: 122 ng/mL; concentration at 4 h [3]: 132 ng/mL; concentration at 6 h [2]: 83.9 ng/mL; concentration at 6 h [3]: 86 ng/mL; concentration at 8 h (male, Sprague Dawley, rat, plasma, iv, 10 mg/kg, single intravenous 10 mg/kg, male rats, 8 h, mean, read-out: Mean Concentration in plasma): 65.1 ng/mL
